Target: T1, Acyl-CoA: Cholesterol Acyltransferase (ACAT) (Rattus norvegicus, UniProt Q7TQM4)
T1 construct: centrifuged at 105,000×g for 1 hour to pellet the microsomes; from tissue; host or cells: liver microsomes of male Sprague Dawley rats
T1 sequence (Q7TQM4 1-524): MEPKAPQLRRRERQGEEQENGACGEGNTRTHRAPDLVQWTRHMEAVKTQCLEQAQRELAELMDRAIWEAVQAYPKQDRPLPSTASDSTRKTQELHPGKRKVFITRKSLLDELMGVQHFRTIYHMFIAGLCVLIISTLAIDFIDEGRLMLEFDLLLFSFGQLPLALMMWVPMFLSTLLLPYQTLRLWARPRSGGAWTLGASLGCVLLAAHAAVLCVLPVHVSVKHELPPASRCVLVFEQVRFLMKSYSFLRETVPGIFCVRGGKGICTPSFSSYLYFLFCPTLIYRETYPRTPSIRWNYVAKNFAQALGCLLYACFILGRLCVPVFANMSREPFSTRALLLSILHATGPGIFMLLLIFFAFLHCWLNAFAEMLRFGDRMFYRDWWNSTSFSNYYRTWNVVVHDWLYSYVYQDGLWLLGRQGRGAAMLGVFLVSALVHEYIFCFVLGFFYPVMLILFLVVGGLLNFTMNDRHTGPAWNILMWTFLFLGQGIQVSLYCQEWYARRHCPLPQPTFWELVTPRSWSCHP
Assay: Inhibition of Acyl-CoA: Cholesterol Acyltransferase (ACAT) in Hepatic Microsomes (In Vitro Assay)
Assay type: biochemical, rat (male Sprague Dawley)
Details: 75 μM 14C-oleoyl-CoA, pH 7.4, 37° C., 10 min, read-out: ACAT Inhibitory Activity (In Vitro) (IC50)
Method: A. Assay of the Inhibition of Acyl-CoA: Cholesterol Acyltransferase (ACAT) in Hepatic Microsomes (In Vitro Assay)
The ability of the compounds to inhibit ACAT, the enzyme responsible for the intracellular synthesis of cholesteryl esters, was tested as follows. Male Sprague Dawley rats weighing 150-300 g, were fed rat chow ad libitum. The animals were fasted for twenty-four hours prior to being euthanized by CO2. The livers were perfused in situ with 50 ml of cold 0.25 sucrose, excised, and homogenized in three volumes of 0.1M phosphate buffer, pH 7.4, that contained 0.5 mM EDTA (ethylenediamine-tetraacetic acid), 1.0 mM glutathione, 0.25M sucrose and […] leupeptin. Microsomes were obtained by differential centrifugation; the supernatant from an initial spin at 15,000×g for 15 minutes was centrifuged at 105,000×g for 1 hour to pellet the microsomes. The microsomes were suspended in homogenization buffer, reisolated by centrifugation, and stored at -70° C. Microsomes were used within one month of preparation.
The control assay in a final volume of 200 μl consisted of 200 μg of microsomal protein, 75 μM ^14 C-oleoyl-CoA (10,000 dpm/nmol) in 0.1M phosphate, pH 7.4, that contained 1 mM glutathione. Compounds were added in 5 μl of DMSO (dimethyl sulfoxide) and additional controls were run with DMSO only. All components, except the oleoyl-CoA, were preincubated for 15 min. at 37° C. prior to the initiation of the reaction by the addition of oleoyl-CoA. The assay was terminated after 10 min by the addition of 4 ml of chloroform:methanol (2:1, v/v). 20,000 dpm of ^3 H-cholesteryl oleate and 10 μg of unlabeled cholesteryl oleate and oleic acid were added as an internal standard and carriers, respectively. After allowing 10 min. for lipid extraction, the samples were centrifuged at 1,000×g for 10 min to separate the solvent layers. The chloroform layer containing the neutral lipids was spotted onto a Baker SI250-Pa silica gel TLC plate and the plate developed using a hexane:diethyl ether:acetic acid (170:30:1) v/v/v) mobile phase. The lipids were visualized by their interaction with iodine vapor and the cholesteryl ester spot was scraped into a scintillation vial and counted. The specific activity of ACAT in the control incubation averaged 260 pmol/min/mg microsomal protein. The data obtained are expressed as the concentration at which ACAT activity is inhibited by 50% (IC50).

IC50, < 1000 nM:
CSc1cc(C)nc(SC)c1NC(=O)C(SCc1ccccc1)c1ccc(Oc2ccccc2)cc1 (stereo not drawn) [Example 292, N-[2,4-bis(methylthio)-6-methyl-3-pyridyl]-α-benzylthio-4-phenoxy-phenylacetamide]
CSc1cc(C)nc(SC)c1NC(=O)C(SCc1ccc(Cl)cc1)c1ccc(C(C)C)cc1 (stereo not drawn) [Example 410, N-[2,4-bis(methylthio)-6-methyl-3-pyridyl]-α-(4-chloro-benzylthio)-4-isopropylphenylacetamide]
CSc1cc(C)nc(SC)c1NC(=O)C(SCc1ccccc1)c1cccc(Oc2ccc(Br)cc2)c1 (stereo not drawn) [Example 322, N-[2,4-bis(methylthio)-6-methyl-3-pyridyl]-α-benzylthio-3-(4'-bromophenoxy)-phenylacetamide]
CSc1cc(C)nc(SC)c1NC(=O)C(SCc1ccc(Cl)cc1)c1ccc(Cl)cc1 (stereo not drawn) [Example 92, N-[2,4-bis(methylthio)-6-methyl-3-pyridyl]-α-(4-chloro-benzylthio)-4-chloro-phenylacetamide]
CSc1cc(C)nc(SC)c1NC(=O)C(SCc1ccc(F)cc1)c1ccc(Cl)cc1 (stereo not drawn) [Example 91, N-[2,4-bis(methylthio)-6-methyl-3-pyridyl]-α-(4-fluoro-benzylthio)-4-chloro-phenylacetamide]
CSc1cc(C)nc(SC)c1NC(=O)C(Sc1ccc(F)cc1)c1ccc(C(F)(F)F)cc1 (stereo not drawn) [Example 393, N-[2,4-bis(methylthio)-6-methyl-3-pyridyl]-α-(4-fluoro-phenylthio)-4-trifluoromethyl-phenylacetamide]
CSc1cc(C)nc(SC)c1NC(=O)C(SCc1ccc(Cl)cc1)c1ccc(C(C)(C)C)cc1 (stereo not drawn) [Example 437, N-[2,4-bis(methylthio)-6-methyl-3-pyridyl]-α-(4-chloro-benzylthio)-4-tert-butylphenylacetamide]
COc1ccc(C(Sc2ccccc2)C(=O)Nc2c(SC)cc(C)nc2SC)cc1 (stereo not drawn) [Example 135, N-[2,4-bis(methylthio)-6-methyl-3-pyridyl]-α-phenylthio-4-methoxy-phenylacetamide]
CCCCCCSC(C(=O)Nc1c(C(C)C)cccc1C(C)C)c1ccccc1 (single isomer, unassigned) [Example 42, N-(2,6-diisopropyl-phenyl)-D-(-)-α-hexylthio-phenylacetamide]
CCCCCCSC(C(=O)Nc1c(SC)cc(C)nc1SC)c1cccc(Oc2ccc(Br)cc2)c1 (stereo not drawn) [Example 317, N-[2,4-bis(methylthio)-6-methyl-3-pyridyl]-α-hexylthio-3-(4'-bromophenoxy)-phenylacetamide]
CCCCCCSC(C(=O)Nc1c(SC)cc(C)nc1SC)c1ccc(F)cc1F (stereo not drawn) [Example 204, N-[2,4-bis(methylthio)-6-methyl-3-pyridyl]-α-hexylthio-2,4-difluoro-phenylacetamide]
COc1ccc(SC(C(=O)Nc2c(SC)cc(C)nc2SC)c2ccc(OC)cc2)cc1 (stereo not drawn) [Example 137, N-[2,4-bis(methylthio)-6-methyl-3-pyridyl]-α-(4-methoxy-phenylthio)-4-methoxy-phenylacetamide]
COc1ccc(C(Sc2ccc(F)cc2)C(=O)Nc2c(SC)cc(C)nc2SC)cc1 (stereo not drawn) [Example 136, N-[2,4-bis(methylthio)-6-methyl-3-pyridyl]-α-(4-fluoro-phenylthio)-4-methoxy-phenylacetamide]
CSc1cc(C)nc(SC)c1NC(=O)C(SCc1ccc(F)cc1)c1ccc(C(F)(F)F)cc1 (stereo not drawn) [Example 380, N-[2,4-bis(methylthio)-6-methyl-3-pyridyl]-α-(4-fluoro-benzylthio)-4-trifluoromethyl-phenylacetamide]
CCCCCCSC(C(=O)Nc1c(SC)cc(C)nc1SC)c1ccc(OC)c(OC)c1 (stereo not drawn) [Example 232, N-[2,4-bis(methylthio)-6-methyl-3-pyridyl]-α-hexylthio-3,4-dimethoxy-phenylacetamide]
COc1ccc(C(SCc2ccc(F)cc2)C(=O)Nc2c(SC)cc(C)nc2SC)cc1OC (stereo not drawn) [Example 237, N-[2,4-bis(methylthio)-6-methyl-3-pyridyl]-α-(4-fluoro-benzylthio)-3,4-dimethoxy-phenylacetamide]
CCCCCCSC(C(=O)Nc1c(SC)cc(C)nc1SC)c1ccc(Cl)c(Cl)c1 (stereo not drawn) [Example 176, N-[2,4-bis(methylthio)-6-methyl-3-pyridyl]-α-hexylthio-3,4-dichloro-phenylacetamide]
CSc1cc(C)nc(SC)c1NC(=O)C(SCc1ccc(F)cc1)c1ccc(Cl)c(Cl)c1 (stereo not drawn) [Example 181, N-[2,4-bis(methylthio)-6-methyl-3-pyridyl]-α-(4-fluoro-benzylthio)-3,4-dichloro-phenylacetamide]

Source: patent US5583147A, “Amides for the treatment of atherosclerosis” (The Dupont Merck Pharmaceutical Company, priority 1994, dated 1996)
